Several values for one entry are separate records, joined by “and”; a condition that tells them apart may be missing. Equal entries are not always repeated.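 Where inhibition never reached the appropriate level, the endpoint shown equals the highest concentration tested. Otherwise, values were interpolated linearly from a five-concentration, 48-hour dose response in 96-well plates. GI50 is the concentration that inhibits growth by half. Definition used: TGI = concentration required for complete inhibition of growth.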

The test system of this test is MDA-MB-468 breast. Description: DTP human tumour cell line panel, 48 h.
As to `CCCn1cnc2c(c1=N)C(c1ccc(F)cc1)c1sc3c(C)cccc3c1O2` (stereo not drawn), the GI50 is 1.29 µM and the TGI stood at 19.2 µM.
Taken in the same sequence, the figures for `Fc1ccc(-c2nn3ncccc3c2-c2ccnc(Nc3ccc4c(c3)OCCO4)n2)cc1` were 0.624 µM and 3.24 µM.
Taken in the same sequence, the figures for `C=C[C@H]1C[C@@H]2C[C@@H]3[C@H]4C/C=C\C(=O)NCCCC5NC(=O)C(=C(O)/C=C/[C@@H]4CC(=O)[C@H]3[C@@H]2[C@H]1C)C5=O` (stereo partly drawn) were 1.59 µM and 3.09 µM.
In the case of `COc1ccc2nc3cc(Cl)ccc3c(NCCN)c2c1`, the GI50 is 1.84 µM and the TGI was found to be 3.79 µM.
Turning to `CCOC(=O)c1c(C)nc2c(c1N)/C(=C/c1ccc(OC)cc1)C(=O)N2Cc1ccc(F)cc1`, the GI50 was 0.194 µM and the TGI came out at 0.65 µM.
`O=C(/C(=C/c1cccc([N+](=O)[O-])c1)c1ccccc1)c1ccccc1`: the GI50 is 2.7 µM and the TGI is 8.8 µM.
Taken in the same sequence, the figures for `C=C(C)C1CCC2(C(=O)O)CCC3(C)C(CCC4C5(C)CCC(OC(=O)NCc6ccccc6)C(C)(C)C5CCC43C)C12` (stereo not drawn) were 1.73 µM and 34.7 µM.
With `CC(C)(O)c1cncc(-c2ccc3ncc(C#N)c(N4CCc5cc(F)c(Cl)cc54)c3c2)c1`, the GI50 was 11.8 µM and the TGI amounted to 30.6 µM.
Taken in the same sequence, the figures for `CC1(C)N=C(N)N=C(N)N1c1ccc(OCc2ccc(S(=O)(=O)F)c(Cl)c2)c(Cl)c1` were 2.29 µM and over 100 µM.
Regarding `CC(C)(C)c1cc(NC(=O)Cc2ccc(-c3cnc4cc(-c5cnn(CCN6CCOCC6)c5)ccc4n3)cc2)no1`, the concentration for 50% growth inhibition (GI50) is 0.7 µM and 0.796 µM and 0.111 µM; the TGI was 50 µM and > 100 µM and > 3 µM.
For the molecule `Cc1ccc(C(=O)Nc2ccc(CN3CCN(C)CC3)c(C(F)(F)F)c2)cc1C#Cc1cnc(N)c2ccccc12`, the GI50 was 0.62 µM and the TGI came out at 1.64 µM.
Turning to `CCc1oc2ccccc2c1C(=O)c1cc(I)c(O)c(I)c1`, the GI50 is 2.38 µM and the TGI was 8.5 µM.
Taken in the same sequence, the figures for `Nc1nc(-c2cccc(Cl)c2)c(-c2ccc3ncccc3n2)s1` were over 15.7 µM and over 25 µM.
Regarding `O=C(/C=C\n1cnc(-c2cc(C(F)(F)F)cc(C(F)(F)F)c2)n1)NNc1cnccn1`, the GI50 is 0.0923 µM and the TGI worked out at 0.657 µM.
As to `CON(C)C(=O)N1N=C(c2cc(F)ccc2F)SC1(CCCN)c1ccccc1` (stereo not drawn), the GI50 is under 0.01 µM; the TGI was 1.57 µM and 0.456 µM.
`C/C(=N\Nc1ccc(Cl)cn1)c1ccccn1`: the GI50 is 0.0655 µM and the TGI came to 0.293 µM.
Taken in the same sequence, the figures for `COC(=O)[C@H](Cc1c[nH]c2ccccc12)NC(=O)[C@@H](OC)[C@@H]1Cc2cc3cc(OC4CC(OC5CC(O)C(O)C(C)O5)C(O)C(C)O4)c(C)c(O)c3c(O)c2C(=O)[C@H]1OC1CC(OC2CC(OC3CC(C)(O)C(O)C(C)O3)C(O)C(C)O2)C(O)C(C)O1` (stereo partly drawn) were 0.00321 µM and 0.011 µM.
Taken in the same sequence, the figures for `O=S1(=O)N(CCNc2nccc(-c3c(-c4cccc(O)c4)nc4sccn34)n2)CCN1Cc1ccccc1` were 8.46 µM and 27.9 µM.
Taken in the same sequence, the figures for `C=C1C(=O)O[C@H]2[C@H]1CC/C(COC(=O)c1cc3ccccc3s1)=C\CC[C@@]1(C)O[C@@H]21` were 1.63 µM and 3.95 µM.
On to `COC(=O)c1c(C)[nH]c(/C=C2\N=C(c3ccc[nH]3)C=C2OC)c1C`, for which the GI50 was 1.2 µM and the TGI was determined as 2.73 µM.
Taken in the same sequence, the figures for `COc1ccc(-c2nnc(COc3ccc(NC(=O)Nc4ccc(Cl)c(C(F)(F)F)c4)cc3F)o2)cc1` were 2.27 µM and 8.6 µM.
For `N#Cc1cccc(NC(=O)c2cc(-c3ccc(F)cc3F)ccc2O)c1`, the GI50 is 1.66 µM and 1.45 µM; the TGI was 5.94 µM and 6.4 µM.
Regarding `COc1cc(NS(=O)(=O)c2ccc(-c3cnc(C4CC4)o3)cc2)ccc1F`, the GI50 is 0.122 µM and the TGI was determined as 11.3 µM.
As to `CCCCCN(CCCCC)CC(O)c1ccc(Cl)c2ccccc12` (stereo not drawn), the GI50 is 11.1 µM and the TGI stood at 24 µM.
Turning to `CN1CCN(c2ccc(Nc3nc(NCCCNS(=O)(=O)c4ccc(C(F)(F)F)cc4)c4sccc4n3)cc2)CC1`, the GI50 was 1.73 µM and the TGI is 3.56 µM.
On to `CCN(CC)CCCC(C)Nc1cnc(C(=O)Nc2cccc3ccc(OC)nc23)cn1` (stereo not drawn), for which the GI50 is 1.58 µM and the TGI stood at 3.19 µM.
With `COc1ncc(-c2ccc3ncnc(Nc4cccc(Cl)c4)c3c2)cc1NS(=O)(=O)CCN1CCOCC1`, the GI50 was under 0.01 µM and the TGI was 0.437 µM.
With `CC[CH2][Sn]([Cl])([Cl])[CH2]CC.Oc1ccccc1C=NCCN=Cc1ccccc1O`, the GI50 is 1.51 µM and the TGI amounted to 3.27 µM.
Taken in the same sequence, the figures for `Cc1c2cc(O)c(=O)cc-2oc2cc(O)c(O)cc12` were over 100 µM and over 100 µM.
Taken in the same sequence, the figures for `Cc1ccc(NC(=O)NCCCOc2ccc(N3C(N)=NC(N)=NC3(C)C)cc2Cl)cc1S(=O)(=O)F` were 17.3 µM and over 100 µM.
Taken in the same sequence, the figures for `Cc1cc(O)c(C(C)(C)C)cc1Sc1cc(C(C)(C)C)c(O)cc1C` were 2.09 µM and 5.12 µM.
In the case of `O=C1/C(=C/c2ccc(O)cc2)CSc2ccc(Cl)cc21`, the GI50 is 4.84 µM and the TGI was 28 µM.
Taken in the same sequence, the figures for `COc1cc(/C=C2\CCCC3=C2NC(C)=NC3c2cc(OC)c(OC)c(OC)c2)cc(OC)c1OC` (stereo not drawn) were 1.18 µM and 3.91 µM.
Taken in the same sequence, the figures for `CC[C@H](C)[C@H]1O[C@]2(C=C[C@@H]1C)C[C@@H]1C[C@@H](C/C=C(\C)[C@@H](O[C@H]3C[C@H](OC)[C@@H](O[C@H]4C[C@H](OC)[C@@H](NC)[C@H](C)O4)[C@H](C)O3)[C@@H](C)/C=C/C=C3\CO[C@@H]4[C@H](O)C(C)=C[C@@H](C(=O)O1)[C@]34O)O2` were 1.46 µM and 3.17 µM.
Taken in the same sequence, the figures for `Cc1ccc(NC(=O)c2sc3nc(C)c(C(O)c4ccccc4)cc3c2N)cc1` (stereo not drawn) were 0.349 µM and 50.7 µM.
As for `COC(=O)C12C3C4C1C1C2C3C41NC(=O)c1csc([C@@H](C[C@H](C(C)C)N(C)C(=O)[C@@H](NC(=O)[C@H]2CCCCN2C)C2CC2)OC(C)=O)n1` (stereo partly drawn), the 50% growth inhibitory concentration (GI50) is 0.0198 µM and the TGI amounted to 31.5 µM.
For `Cc1ccc2c3c(c(=O)[nH]c2c1)C1(C(C#N)=C(N)O3)c2cc(Br)ccc2-c2ccc(Br)cc21`, the GI50 was 1.64 µM and the TGI amounted to 3.55 µM.
Taken in the same sequence, the figures for `Cn1c2ccccc2c2c3[nH]c(=O)[nH]c(=O)c3c3c4ccccc4n(C)c3c21` were 3.51 µM and 29.1 µM.
Consider `COc1ccc(OC)c(C(=O)c2oc3ccc(Br)cc3c2N)c1`, for which the 50% growth inhibitory concentration (GI50) is 0.206 µM and the TGI was 5.22 µM.

The values above are taken from PubChem BioAssay (NCI).
